Data: paper PMC11714206, “Massively Parallel Screening of Toll/Interleukin‐1 Receptor (TIR)‐Derived Peptides Reveals Multiple Toll‐Like Receptors (TLRs)‐Targeting Immunomodulatory Peptides” (Advanced Science, 2024)
Each block holds one sequence with its values, some of them ahead of it.

Molecular target: T1, MAL^TIR (Homo sapiens, UniProt P58753)
T1 construct: MAL (residues 79–221); 6xHis; made in house; host or cells: E. coli BL21 (DE3)
Assay: T‐Surf phage library (P8 and P3) selection against MAL^TIR, four rounds, NGS read counts
Assay type: binding
Conditions: for P8_MAL Rank (after) / P8_MAL Rank (before): P8 library; for P3_MAL Rank (after) / P3_MAL Rank (before): P3 library; for Population: P3_MAL pool: P3 T-Surf phage library, 4th round of selection against MAL TIR, share of NGS reads
Method in brief: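 Read counts come from NGS of phage pools enriched over four selection rounds on the plate‐coated TIR domain (5 µg mL^−1). Each round: 1 h phage binding at room temperature after 0.2% BSA blocking, Tween washes, acid elution, amplification in E. coli TG1 with M13KO7 helper.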

[1] = P8_MAL: rank by count after grouping
[2] = P8_MAL: rank by count before grouping
[3] = selection against MAL, rank by count after grouping
[4] = selection against MAL, rank by count before grouping
[5] = P3_MAL: rank by count after grouping
[6] = P3_MAL: rank by count before grouping
[7] = selection against MAL, rank after grouping
[8] = selection against MAL, rank before grouping
[9] = selection against MAL TIR, rank by count after grouping
[10] = selection against MAL TIR, rank by count before grouping
[11] = 4R selection against MAL, rank after grouping
[12] = 4R selection against MAL, rank before grouping

T1 sequence (P58753 79-221): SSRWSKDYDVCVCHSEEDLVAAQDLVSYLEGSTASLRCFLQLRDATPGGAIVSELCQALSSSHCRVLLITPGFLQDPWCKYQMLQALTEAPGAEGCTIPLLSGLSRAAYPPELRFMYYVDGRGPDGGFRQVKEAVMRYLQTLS

Rank (after) [1]: 132
Rank (before) [2]: 2331
Sequence: PFLGHLSNALVQAGIH

P8_MAL Rank (after) [3]: 695
P8_MAL Rank (before) [4]: 2330
Sequence: PFLVHQYNEALQADSH

Rank (after) [5]: 426
Rank (before) [6]: 2762
Sequence: PKLRTKVLKYQMRTKT

Rank (after) [5]: 155
Rank (before) [6]: 2759
Sequence: PKLRTKVMNYLMRTKT

Rank (after) [1]: 104
Rank (before) [2]: 2327
Sequence: PLLYTFLINLTHPTNF

P3_MAL Rank (after) [3]: 730
P3_MAL Rank (before) [4]: 2666
Sequence: PNLGTKTLNYLTRTKT

P3_MAL Rank (after) [3]: 768
P3_MAL Rank (before) [4]: 2667
Sequence: PNLLTKVLHYLMRTKT

P3_MAL Rank (after) [7]: 574
P3_MAL Rank (before) [8]: 2748
Sequence: PNLRNKVLNYLLRTKT

P3_MAL Rank (after) [7]: 532
P3_MAL Rank (before) [8]: 2672
Sequence: PNLRPKVRNYLIRTKT

P3_MAL Rank (after) [9]: 208
P3_MAL Rank (before) [10]: 2670
Sequence: PNLRPQVLNYLIRTKT

P3_MAL Rank (after) [11]: 667
P3_MAL Rank (before) [12]: 2738
Sequence: PNLRTKELIYLMRTKT

Population: 0.00338%
Sequence: PNLRTKGLNYLMRTKT

Rank (after) [5]: 415
Rank (before) [6]: 2736
Sequence: PNLRTKGLNYRMRTKT

P3_MAL Rank (after) [9]: 273
P3_MAL Rank (before) [10]: 2682
Sequence: PNLRTKLLNSLMRTKT

P3_MAL Rank (after) [9]: 280
P3_MAL Rank (before) [10]: 2694
Sequence: PNLRTKLLNYLIRTKT

P3_MAL Rank (after) [9]: 247
P3_MAL Rank (before) [10]: 2742
Sequence: PNLRTKLLNYLMHTKT

P3_MAL Rank (after) [9]: 240
P3_MAL Rank (before) [10]: 2701
Sequence: PNLRTKVLAYLNRTKT

Rank (after) [5]: 406
Rank (before) [6]: 2702
Sequence: PNLRTKVLDYLLRTKT

Rank (after) [5]: 405
Rank (before) [6]: 2706
Sequence: PNLRTKVLHHLMRTKP

Rank (after) [5]: 477
Rank (before) [6]: 2709
Sequence: PNLRTKVLNSLMSTKT

P3_MAL Rank (after) [9]: 237
P3_MAL Rank (before) [10]: 2711
Sequence: PNLRTKVLNYLFRTNT

Rank (after) [5]: 190
Rank (before) [6]: 2747
Sequence: PNLRTKVLNYLILTKT

Population: 0.00413%
Sequence: PNLRTKVLNYLMRIKT

Population: 0.00526%
Sequence: PNLRTKVLNYLMRNKT

Population: 0.00451%
Sequence: PNLRTKVLNYLMRSKT

Rank (after) [5]: 174
Rank (before) [6]: 955
Sequence: PNLRTKVLNYLMRTK

Population: 0.00376%
Sequence: PNLRTKVLSYLMRTKT

P3_MAL Rank (after) [9]: 270
P3_MAL Rank (before) [10]: 2674
Sequence: PNLRTKVLSYLMRTTT

P3_MAL Rank (after) [3]: 741
P3_MAL Rank (before) [4]: 2707
Sequence: PNLRTKVLSYPMRTMT

P3_MAL Rank (after) [11]: 624
P3_MAL Rank (before) [12]: 2699
Sequence: PNLRTKVLYYPMRTKT

P3_MAL Rank (after) [11]: 643
P3_MAL Rank (before) [12]: 2733
Sequence: PNLRTKVMNYLIRTKP

P3_MAL Rank (after) [11]: 608
P3_MAL Rank (before) [12]: 2730
Sequence: PNLRTKVPDYLKRTKT

P3_MAL Rank (after) [11]: 640
P3_MAL Rank (before) [12]: 2680
Sequence: PNLRTKVPNYPMLTKT

Rank (after) [5]: 171
Rank (before) [6]: 2695
Sequence: PNLRTNVLHYLMRTKT

Rank (after) [5]: 141
Rank (before) [6]: 2745
Sequence: PNLRTNVLNYLIRTKT

P3_MAL Rank (after) [9]: 266
P3_MAL Rank (before) [10]: 2696
Sequence: PNLRTNVLNYLMRPKT

Rank (after) [5]: 175
Rank (before) [6]: 2692
Sequence: PNLRTNVMNYLMRTKT

P3_MAL Rank (after) [7]: 524
P3_MAL Rank (before) [8]: 2686
Sequence: PNLRTQVQNYLLPNKT

P3_MAL Rank (after) [11]: 656
P3_MAL Rank (before) [12]: 2673
Sequence: PNLRTTLMTSPMRTKT

Rank (after) [5]: 446
Rank (before) [6]: 2749
Sequence: PNLRTTVLKYLIRTKT

P3_MAL Rank (after) [3]: 726
P3_MAL Rank (before) [4]: 2689
Sequence: PNLRTTVPTYLMRTKT

P3_MAL Rank (after) [9]: 216
P3_MAL Rank (before) [10]: 2690
Sequence: PNLRTTVQNYLMRTKT

P3_MAL Rank (after) [11]: 634
P3_MAL Rank (before) [12]: 2753
Sequence: PNLSNKVMNYLMRTQT

Rank (after) [5]: 181
Rank (before) [6]: 2751
Sequence: PNLSPKVLNYLMRTKT

Rank (after) [1]: 423
Rank (before) [2]: 2328
Sequence: PQDLEWFYERLVSLIL

P3_MAL Rank (after) [11]: 579
P3_MAL Rank (before) [12]: 2665
Sequence: PSEIRKQTGSLPKAFA

P3_MAL Rank (after) [11]: 654
P3_MAL Rank (before) [12]: 2631
Sequence: PVAHEISKKMQLFATI

P3_MAL Rank (after) [7]: 499
P3_MAL Rank (before) [8]: 2630
Sequence: PYLRTQVLNYLMRTKN

P8_MAL Rank (after) [7]: 519
P8_MAL Rank (before) [8]: 2433
Sequence: QFFWDQLKSILGDTRF

P8_MAL Rank (after) [11]: 630
P8_MAL Rank (before) [12]: 2348
Sequence: QLIQHWIELHQHQLHL

P8_MAL Rank (after) [9]: 246
P8_MAL Rank (before) [10]: 2346
Sequence: QLIQPWMELHLHQLHL

P8_MAL Rank (after) [11]: 653
P8_MAL Rank (before) [12]: 2349
Sequence: QLIQQLIELHLDQLHL

Rank (after) [1]: 151
Rank (before) [2]: 969
Sequence: QLIQQWIELHAPAAS
